Measurements as given in article PMC3050433, “The effects of maribavir on the autophosphorylation of ganciclovir resistant mutants of the cytomegalovirus UL97 protein” (Herpesviridae, 2010).
Substitutions are numbered along the chain they refer to.

What was measured:
UL97 H520Q = molecular target: T1, UL97 H520Q (Human cytomegalovirus, UniProt Q68101, H520Q); assay: UL97 autophosphorylation protein kinase assay, H520Q; assay type: biochemical
T1 construct: PCR reaction to generate the full length UL97; honey bee melittin secretion signal (N); made in house; host or cells: Sf21 insect cells, recombinant baculovirus (pMelBac C)
T1 sequence (Q68101 1-707 H520Q): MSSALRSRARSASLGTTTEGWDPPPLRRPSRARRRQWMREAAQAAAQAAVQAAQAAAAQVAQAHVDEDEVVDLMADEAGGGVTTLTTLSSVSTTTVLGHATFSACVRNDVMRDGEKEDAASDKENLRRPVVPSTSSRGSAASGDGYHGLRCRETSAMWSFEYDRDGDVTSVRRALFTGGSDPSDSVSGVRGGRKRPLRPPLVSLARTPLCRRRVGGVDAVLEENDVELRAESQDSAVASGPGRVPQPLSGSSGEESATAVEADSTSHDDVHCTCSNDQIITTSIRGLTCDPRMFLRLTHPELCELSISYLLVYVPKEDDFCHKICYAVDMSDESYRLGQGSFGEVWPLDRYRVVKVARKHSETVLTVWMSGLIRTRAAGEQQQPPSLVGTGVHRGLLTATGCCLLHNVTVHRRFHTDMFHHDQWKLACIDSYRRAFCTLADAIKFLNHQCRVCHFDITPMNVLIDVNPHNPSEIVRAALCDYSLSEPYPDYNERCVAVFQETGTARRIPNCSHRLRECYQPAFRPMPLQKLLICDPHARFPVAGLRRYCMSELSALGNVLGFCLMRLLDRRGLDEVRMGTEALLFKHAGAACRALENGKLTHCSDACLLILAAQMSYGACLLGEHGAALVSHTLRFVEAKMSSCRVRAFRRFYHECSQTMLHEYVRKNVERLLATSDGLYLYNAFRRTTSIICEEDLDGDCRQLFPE
Protocol: (§1) Analysis of the autophosphorylation of wild type and mutant UL97 protein species was performed by a standard protein kinase assay as previously described (46). Briefly, purified protein was added to 2× protein kinase buffer (100 mM Tris HCl, pH9.0, 20 mM MgCl2, 10 μM ATP, 4 mM DTT, 2 M NaCl) and 370 KBq [γ^32P] ATP (Amersham), made up to 20 μl with SDW and incubated at 37°C. The reactions were terminated by the addition of 2× SDS sample buffer followed by boiling for 3 minutes. The amount of radiolabelled phosphate incorporated by autophosphorylation was analysed by SDS-PAGE and measured using the Biorad Mulitanalyst. The protein kinase assays were initially performed for 2 to 60 minutes to determine the maximum rate of phosphate incorporation, all assays were then performed at the maximum rate which equated to 5 minutes.
(§2) Enzyme kinetic analysis was performed on the purified wild type and mutant UL97 protein species as above using increasing concentrations of ATP (2 μM to 20 μM). The amount of incorporated radiolabelled phosphate was plotted against the concentration of ATP in a Lineweaver Burke plot to determine the Km for ATP for each UL97 species. […]

UL97 L595F = molecular target: T2, UL97 L595F (Human cytomegalovirus, UniProt Q68101, L595F); assay: UL97 autophosphorylation protein kinase assay, L595F; assay type: biochemical
T2 construct: PCR reaction to generate the full length UL97; honey bee melittin secretion signal (N); made in house; host or cells: Sf21 insect cells, recombinant baculovirus (pMelBac C)
T2 sequence (Q68101 1-707 L595F): T1 sequence (Q68101 1-707 H520Q) with Q520H, L595F
Protocol: as §1, §2

[1] = test system: wild type and mutant UL97 proteins; assay: UL97 autophosphorylation protein kinase assay, all UL97 species pooled; assay type: biochemical, human cytomegalovirus; conditions: maribavir 0.5 μM; every form of UL97 investigated (mutant and wild type)
Protocol: as §1, §2

[2] = test system: HCMV strains resistant to ganciclovir, foscarnet and cidofovir; parameters: method as in PMID 16962820; conditions: cited from earlier work

SMILES	Km (UL97 H520Q; H520Q, read-out: Km for ATP) [µM]	Km (UL97 L595F; L595F, read-out: Km for ATP) [µM]	IC50 (UL97 H520Q; H520Q mutant) [nM]	IC50 (UL97 L595F; L595F mutant) [nM]	autophosphorylation as % of total phosphorylation of the wild type UL97 protein [1]	activity against resistant strains [2]
Nc1ncnc2c1ncn2[C@@H]1O[C@H](COP(=O)(O)OP(=O)(O)OP(=O)(O)O)[C@@H](O)[C@H]1O [ATP]	25 ± 2.4	31 ± 4.5				
CC(C)Nc1nc2cc(Cl)c(Cl)cc2n1[C@H]1O[C@@H](CO)[C@H](O)[C@@H]1O [maribavir, 5,6-dichloro-2-(isopropylamino)-1-beta-L-ribofuranosyl-1H-benzimidazole]			33	28	below 10%	active
